Legend:
Barnyard grass (BG) [1] = assay: Pre-emergence herbicide test; type: in vivo; details: Echinochloa crus-galli, 336 h, two weeks after treatment
Outline: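 Greenhouse pre-emergence spray test: pots seeded one day before treatment received compound at rates of 8 or 4 lb/acre (38 gal/acre). Visual injury/control scores for Echinochloa crus-galli taken at two weeks, with watering by sub-irrigation only.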

Crabgrass (CG) [2] = assay: Pre-emergence herbicide test; type: in vivo, Digitaria sanquinalis; details: Digitaria sanguinalis, pre-emergence, 336 h, two weeks after treatment
Outline: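 Crabgrass (Digitaria sanquinalis) was surface seeded in 3' plastic pots of potting soil, covered with screened soil, and watered by sub-irrigation in greenhouse trays. Pots were seeded one day before spraying in a hood with a moving belt and fixed nozzle. Plants stayed in the greenhouse on sub-irrigation, and pre-emergence control was rated visually two weeks after treatment.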

Bean (BN) [3] = assay: Post-emergence herbicide test; type: in vivo, Phaseolus vulgaris var. Black Valentine; details: Phaseolus vulgaris, post-emergence, 336 h, two weeks after treatment
Outline: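 Bean seedlings (Phaseolus vulgaris var. Black Valentine) were grown in potting soil in 3' pots until the primary leaves expanded. They were then sprayed under a hood with a removable belt and fixed nozzle, using 50 ml formulations. Afterward they were returned to the greenhouse and watered only by sub-irrigation. Percent control was judged visually two weeks after treatment.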

Corn (CN) [4] = assay: Post-emergence herbicide test; type: in vivo; details: Zea mays, 336 h, two weeks after treatment
Outline: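 Greenhouse seedlings grown in potting soil and sprayed post-emergence at 8 lbs compound/acre (formulations also made for 4 lbs/acre) in 38 gallons/acre spray volume. Watering by sub-irrigation only. Injury or control rated visually two weeks after treatment.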

Crabgrass (CG) [5] = assay: Post-emergence herbicide test; type: in vivo, Digitaria sanquinalis; details: Digitaria sanguinalis, post-emergence, 336 h, two weeks after treatment
Outline: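 Crabgrass (Digitaria sanquinalis) was surface seeded individually in 3' plastic pots of potting soil, covered with screened soil, and watered by sub-irrigation in greenhouse trays. Planting was staggered so seedlings reached the target stage together. Post-emergence sprays were applied in a hood with a removable belt and fixed nozzle, and control was visually rated two weeks after treatment.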

Corn (CN) [6] = assay: Pre-emergence herbicide test; type: in vivo; details: Zea mays, 336 h, two weeks after treatment
Outline: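 Visual injury/control ratings were made 2 weeks post-spray on corn pots seeded (4 seeds, seed-diameter depth) the day before treatment. Application was a belt-hood spray of 38 gal/acre delivering 8 lbs active per acre, with a 4 lbs/acre rate also formulated. Watering was by sub-irrigation throughout.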

Barnyard grass (BG) [7] = assay: Post-emergence herbicide test; type: in vivo; details: Echinochloa crus-galli, 336 h, two weeks after treatment
Outline: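 Greenhouse pot-grown barnyard grass seedlings sprayed post-emergence at 8 lbs active compound per acre (some at 4 lbs/acre) in 38 gallons per acre, then sub-irrigated. Injury or control rated visually two weeks after treatment.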

Amaranth pigweed (PW) [8] = assay: Post-emergence herbicide test; type: in vivo, Amaranthus retroflexus; details: 336 h, two weeks after treatment
Outline: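 Visual injury or control ratings were made two weeks after spraying, with greenhouse watering by sub-irrigation only. Treatment was post-emergence, when pigweed seedlings had 1 or 2 true leaves, at 8 lbs active compound per acre (4 lbs/acre formulations also made) in a 38 gallons-per-acre spray volume.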

Johnson grass (JG) [9] = assay: Post-emergence herbicide test; type: in vivo, Sorgum helepense; details: Sorghum halepense, 336 h, two weeks after treatment
Outline: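 Visual injury or control scores taken 2 weeks after a post-emergence spray of pot-grown plants. Application was 8 lbs/acre (or 4 lbs/acre) in 38 gal/acre. Plants were held in the greenhouse with sub-irrigation only.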

Cotton (CT) [10] = assay: Pre-emergence herbicide test; type: in vivo, Gossypium hirsutum var. DPL smooth leaf; details: Gossypium hirsutum, 336 h, two weeks after treatment
Outline: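 Visual injury/control ratings were taken at two weeks post-spray. Pots seeded a day earlier received compound pre-emergence at 8 lbs/acre, or 4 lbs/acre, in a 38 gallon/acre spray volume, and were then held in the greenhouse, watered only from below.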

Amaranth pigweed (PW) [11] = assay: Pre-emergence herbicide test; type: in vivo, Amaranthus retroflexus; details: 336 h, two weeks after treatment
Outline: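 Visual injury or control ratings were made at two weeks on pre-emergence pots, sub-irrigated in the greenhouse. Seeds were sown a day before a hood spray delivering 8 lbs/acre (or 4 lbs/acre) of compound in 38 gallons per acre.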

[12] = tested on: variety of crops and weed species; assay: Pre- and post-emergence herbicide tests, overall assessment of Tables III-VI; type: in vivo; details: data of Tables III-VI
Outline: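 Crops and weeds grown in potting soil were sprayed at 8 lbs. compound per acre in 38 gallons per acre, pre-emergence pots seeded one day before treatment. Injury or control was visually rated two weeks after treatment.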

[13] = tested on: Yellow foxtail grass (YF); assay: Post-emergence herbicide test; type: in vivo, Setaria glauca; details: Setaria, 336 h, two weeks after treatment
Outline: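 Visual rating of injury/control made 2 weeks post-spray. Seedlings at a uniform growth stage in soil-filled pots received a hood spray of 8 lbs/acre active compound, 38 gallons/acre volume, with a 4 lbs/acre rate also formulated. Watering was by sub-irrigation only.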

Turnip (TP) [14] = assay: Post-emergence herbicide test; type: in vivo, Brassica sp.; details: Brassica rapa, post-emergence, 336 h, two weeks after treatment
Outline: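 A greenhouse post-emergence herbicide test on turnip. Seeds were sown on the surface of potting soil in 3' plastic pots, lightly covered with screened soil and watered from below. Planting was timed so seedlings had 1 or 2 true leaves above the cotyledons at spraying, done in a hood with a fixed nozzle. Control or injury was scored by eye after two weeks.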

Johnson grass (JG) [15] = assay: Pre-emergence herbicide test; type: in vivo, Sorgum helepense; details: Sorghum halepense, 336 h, two weeks after treatment
Outline: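 Visual injury or control rating two weeks post-treatment, after pre-emergence spray of 8 or 4 lbs active per acre (38 gal/acre) onto pots sown the previous day. Greenhouse watering by sub-irrigation only.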

Cotton (CT) [16] = assay: Post-emergence herbicide test; type: in vivo, Gossypium hirsutum var. DPL smooth leaf; details: Gossypium hirsutum, post-emergence, 336 h, two weeks after treatment
Outline: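 This greenhouse post-emergence test measured how well spray treatments controlled cotton. Seedlings of Gossypium hirsutum var. DPL smooth leaf, with expanded cotyledons and a first true leaf 1' in length, were sprayed with 50 ml formulations in a belt-fed spray hood. They were then returned to the greenhouse and watered only by sub-irrigation. Injury was scored visually as % control after two weeks.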

Turnip (TP) [17] = assay: Pre-emergence herbicide test; type: in vivo, Brassica sp.; details: Brassica rapa, pre-emergence, 336 h, two weeks after treatment
Outline: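 In this pre-emergence greenhouse test, turnip was seeded on the surface of potting soil in 3' plastic pots, lightly covered with screened soil, and watered from below. One day later the pots were sprayed in a belt-fed spray hood. Watering continued only by sub-irrigation, and percent control was visually scored two weeks after treatment.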

Bean (BN) [18] = assay: Pre-emergence herbicide test; type: in vivo, Phaseolus vulgaris var. Black Valentine; details: Phaseolus vulgaris, 336 h, two weeks after treatment
Outline: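 Visual injury/control ratings were taken two weeks post-spray on sub-irrigated Phaseolus vulgaris var. Black Valentine. Pots were sown a day before treatment. Pre-emergence spray delivered 8 lbs actual compound per acre (or 4 lbs/acre) at 38 gallons per acre.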

[19] = tested on: Yellow foxtail grass (YF); assay: Pre-emergence herbicide test; type: in vivo, Setaria glauca; details: Setaria, 336 h, two weeks after treatment
Outline: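 Visual rating of injury/control made two weeks after a pre-emergence spray of 8 or 4 lbs active per acre (38 gal/acre) onto pots seeded the previous day. Greenhouse watering by sub-irrigation only.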

In the case of `CCN(C(=O)NC)c1nnc(C(F)(F)F)s1` [Example 37], the pest or weed control at 2241.7 g/ha (Barnyard grass (BG) [1]; 2 lb/acre) is reported as 50%, the pest or weed control at 4483.4 g/ha (Barnyard grass (BG) [1]; 4 lb/acre) is reported as 60% and the pest or weed control at 8966.8 g/ha (Barnyard grass (BG) [1]; 8 lb/acre) is reported as 90%. It also gave a pest or weed control (Crabgrass (CG) [2]; 2 lb/acre) of 90%, a pest or weed control at 4483.4 g/ha (Crabgrass (CG) [2]; 4 lb/acre) of 90% and a pest or weed control at 8966.8 g/ha (Crabgrass (CG) [2]; 8 lb/acre) of 90%. The pest or weed control at 2241.7 g/ha (Bean (BN) [3]; 2 lb/acre) was 90%, the pest or weed control at 4483.4 g/ha (Bean (BN) [3]; 4 lb/acre) was 100% and the pest or weed control at 8966.8 g/ha (Bean (BN) [3]; 8 lb/acre) was 100%. For the same molecule, the pest or weed control (Corn (CN) [4]; 2 lb/acre) was 20%, the pest or weed control at 4483.4 g/ha (Corn (CN) [4]; 4 lb/acre) was 80% and the pest or weed control at 8966.8 g/ha (Corn (CN) [4]; 8 lb/acre) was 80%. For the same molecule, the pest or weed control (Crabgrass (CG) [5]; 2 lb/acre) was 30%, the pest or weed control at 4483.4 g/ha (Crabgrass (CG) [5]; 4 lb/acre) was 40% and the pest or weed control at 8966.8 g/ha (Crabgrass (CG) [5]; 8 lb/acre) was 90%. It also gave a pest or weed control at 2241.7 g/ha (Corn (CN) [6]; 2 lb/acre) of 30%, a pest or weed control at 4483.4 g/ha (Corn (CN) [6]; 4 lb/acre) of 40% and a pest or weed control at 8966.8 g/ha (Corn (CN) [6]; 8 lb/acre) of 50%. For the same molecule, the pest or weed control at 2241.7 g/ha (Barnyard grass (BG) [7]; 2 lb/acre) was 20%, the pest or weed control at 4483.4 g/ha (Barnyard grass (BG) [7]; 4 lb/acre) was 30% and the pest or weed control at 8966.8 g/ha (Barnyard grass (BG) [7]; 8 lb/acre) was 90%. For the same molecule, the pest or weed control at 2241.7 g/ha (Amaranth pigweed (PW) [8]; 2 lb/acre) was 90%, the pest or weed control at 4483.4 g/ha (Amaranth pigweed (PW) [8]; 4 lb/acre) was 100% and the pest or weed control at 8966.8 g/ha (Amaranth pigweed (PW) [8]; 8 lb/acre) was 100%. For the same molecule, the pest or weed control (Johnson grass (JG) [9]; 2 lb/acre) was 20%, the pest or weed control at 4483.4 g/ha (Johnson grass (JG) [9]; 4 lb/acre) was 30% and the pest or weed control at 8966.8 g/ha (Johnson grass (JG) [9]; 8 lb/acre) was 70%. The pest or weed control at 2241.7 g/ha (Cotton (CT) [10]; 2 lb/acre) was 40%, the pest or weed control at 4483.4 g/ha (Cotton (CT) [10]; 4 lb/acre) was 40% and the pest or weed control at 8966.8 g/ha (Cotton (CT) [10]; 8 lb/acre) was 60%. It also gave a pest or weed control at 2241.7 g/ha (Amaranth pigweed (PW) [11]; 2 lb/acre) of 90%, a pest or weed control at 4483.4 g/ha (Amaranth pigweed (PW) [11]; 4 lb/acre) of 100% and a pest or weed control at 8966.8 g/ha (Amaranth pigweed (PW) [11]; 8 lb/acre) of 100%. The “herbicidal effectiveness / selectivity, in words” value [12] was “extremely effective when applied to a variety of crops and weed species”, the pest or weed control ([13]; 2 lb/acre) was 30% and the pest or weed control at 4483.4 g/ha ([13]; 4 lb/acre) was 50%. For the same molecule, the pest or weed control at 8966.8 g/ha ([13]; 8 lb/acre) was 90%, the pest or weed control at 2241.7 g/ha (Turnip (TP) [14]; 2 lb/acre) was 90% and the pest or weed control at 4483.4 g/ha (Turnip (TP) [14]; 4 lb/acre) was 90%. It also gave a pest or weed control at 8966.8 g/ha (Turnip (TP) [14]; 8 lb/acre) of 100%, a pest or weed control at 2241.7 g/ha (Johnson grass (JG) [15]; 2 lb/acre) of 60% and a pest or weed control at 4483.4 g/ha (Johnson grass (JG) [15]; 4 lb/acre) of 70%. The pest or weed control at 8966.8 g/ha (Johnson grass (JG) [15]; 8 lb/acre) was 60%, the pest or weed control at 2241.7 g/ha (Cotton (CT) [16]; 2 lb/acre) was 100% and the pest or weed control at 4483.4 g/ha (Cotton (CT) [16]; 4 lb/acre) was 100%. The pest or weed control at 8966.8 g/ha (Cotton (CT) [16]; 8 lb/acre) was 100%, the pest or weed control at 2241.7 g/ha (Turnip (TP) [17]; 2 lb/acre) was 100% and the pest or weed control at 4483.4 g/ha (Turnip (TP) [17]; 4 lb/acre) was 100%. The pest or weed control at 8966.8 g/ha (Turnip (TP) [17]; 8 lb/acre) was 100%, the pest or weed control at 2241.7 g/ha (Bean (BN) [18]; 2 lb/acre) was 80% and the pest or weed control at 4483.4 g/ha (Bean (BN) [18]; 4 lb/acre) was 70%. For the same molecule, the pest or weed control at 8966.8 g/ha (Bean (BN) [18]; 8 lb/acre) was 90%, the pest or weed control at 2241.7 g/ha ([19]; 2 lb/acre) was 70% and the pest or weed control at 4483.4 g/ha ([19]; 4 lb/acre) was 80%. For the same molecule, the pest or weed control at 8966.8 g/ha ([19]; 8 lb/acre) was 90%.
